Data: BindingDB's records for patent US12168664 (Columbia University, 2024)

Target: Retinol-binding protein 4 (Homo sapiens, UniProt P02753)
Assay: Scintillation Proximity RBP4 Binding Assay
Protocol: Untagged human RBP4 purified from the urine of tubular proteinuria patients was purchased from Fitzgerald Industries International. It was biotinylated using the EZ-Link Sulfo-NHS-LC-Biotinylation kit from Pierce following the manufacturer's recommendations. […] Nonspecific binding was determined in the presence of 20 μM of unlabeled retinol. The reaction mix was assembled in the dark under dim red light. The plates were sealed with clear tape (TopSeal-A: 96-well microplate, PerkinElmer), wrapped in the aluminum foil, and allowed to equilibrate 6 hours at room temperature followed by overnight incubation at +4° C. Radiocounts were measured using a TopCount NXT counter (Packard Instrument Company).

SMILES | IC50 [µM]
O=C(c1c[nH]c2cnccc12)N1C[C@H]2C[C@@H](c3ccccc3C(F)(F)F)C[C@H]2C1 [US12168664, Compound 8a] | > 3
O=C(c1c[nH]c2ccncc12)N1C[C@H]2C[C@@H](c3ccccc3C(F)(F)F)C[C@H]2C1 [US12168664, Compound 8b] | > 3
